Laboratory results: paper PMC6270973, “Two New Phenolic Compounds from the Heartwood of Caesalpinia sappan L” (Molecules, 2013)
Where two headings read alike, the source gives them in different places.

Experiments:
[1] = tested on: nitric oxide production in LPS-activated BV-2 microglia; test: Inhibition of NO production in LPS-stimulated BV-2 microglia; assay type: cell-based; conditions: for inhibitory activity against nitric oxide production (in words): IC50 values lower than those of quercetin, the positive control
Method: Two new compounds and six known compounds caesalpin J (3), 1-hydroxy-7-methylxanthone (4), 1,5-dihydroxyxanthone (5), 1,7-dihydroxyxanthone (6), butein (7), and sappanone A (8) were evaluated for their inhibitory activities against nitric oxide production in LPS-activated BV-2 microglia according to a previously described method.
Cytotoxicity was determined with the MTT assay.

BV-2 microglia [2] = tested on: BV-2 microglia
Method: (§1) Each compound was dissolved in DMSO and further diluted in the medium to produce different concentrations with a maximum concentration of 50 μM. The absorbance was measured at 570 nm with a Multilabel Plate Reader (Sunrise TECAN, Männedorf, Switzerland). Cytotoxicity was determined with the MTT assay. Quercetin (Sigma-Aldrich, Foster City, CA, USA) was used as the positive control.

[3] = Cytotoxicity (cell viability) by MTT assay; conditions: mouse, BV-2 microglia cells, Viability (at 50 µM, %), compound at 50 µM
Method: as §1

BV-2 microglia [4] = test: Cytotoxicity (cell viability) by MTT assay; conditions: compound at 50 µM, 50 µM
Method: as §1

[5] = LPS-activated BV-2 microglia, maximum concentration tested 50 μM, read-out: IC50 (µM), inhibition of NO production
[6] = Mus musculus, BV-2, LPS-activated BV-2 microglia, maximum concentration tested 50 μM, read-out: IC50 (µM), inhibition of NO production

| Molecule | inhibitory activity against nitric oxide production (in words) ([1]; LPS-activated BV-2 microglia) | IC50 [1, 6] [µM] | viability at 50 µM [3] [%] | other results |
| --- | --- | --- | --- | --- |
| 1-hydroxy-7-methylxanthone [Compound 4] | obvious inhibitory activity |  |  | IC50 [1, 5]: 14.2 µM; Viability (at 50 µM, %) (BV-2 microglia [2]): 98.94% |
| CO[C@H]1[C@]2(O)COC3=CC(=O)C=C[C@@]31c1cc(O)c(O)cc1C2 [Compound 1, epicaesalpin J] |  | 52.6 | 96.5 |  |
| O=C1C=CC23CC(O)(COC2=C1)Cc1cc(O)c(O)cc13 (stereo not drawn) [Compound 2, 7,10,11-trihydroxydracaenone] |  | 56.7 | 99.3 |  |
| CO[C@H]1[C@]2(O)COC3=CC(=O)C=C[C@@]31c1cc(O)c(O)cc1C2 [Compound 3, caesalpin J] |  |  |  | IC50 [1, 5]: 45.9 µM; Viability (at 50 µM, %) (BV-2 microglia [4]): 96.13% |
| O=c1c2cccc(O)c2oc2cccc(O)c12 [Compound 5, 1,5-dihydroxyxanthone] |  | 28.7 | 101 |  |
| O=c1c2cc(O)ccc2oc2cccc(O)c12 [Compound 6, 1,7-dihydroxyxanthone] | obvious inhibitory activity |  | 102 | IC50 ([1]; Mus musculus, BV-2, read-out: IC50 (µM), inhibition of NO production): 21.5 µM |
| O=C(/C=C/c1ccc(O)c(O)c1)c1ccc(O)cc1O [Compound 7, butein] | obvious inhibitory activity | 15.5 | 94 |  |
| O=C1/C(=C/c2ccc(O)c(O)c2)COc2cc(O)ccc21 [Compound 8, sappanone A] | obvious inhibitory activity | 8.26 | 99.3 |  |
| O=c1c(O)c(-c2ccc(O)c(O)c2)oc2cc(O)cc(O)c12 [quercetin, reference compound] |  | 23.4 |  |  |
